Reference: PubChem BioAssay (NCI)
Several values for one entry are separate records, joined by “and”; a condition that tells them apart may be missing. Equal entries are not always repeated.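 1) Cells in 96-well plates. 2) Compound, 48 h, 5 concentrations. 3) Linear interpolation between surrounding doses. 4) Unreached endpoint = highest concentration. The concentration for 50% growth inhibition is given as GI50. At the TGI there is no net growth.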

Key:
Experiment in all cases: inhibition of tumour cell growth, NCI panel, 48 h
[1] = system: SF-295 CNS
[2] = system: NCI-H226 lung
[3] = system: SK-MEL-28 melanoma
[4] = system: SR leukemia
[5] = system: CAKI-1 renal
[6] = system: CCRF-CEM leukemia
[7] = system: SF-268 CNS
[8] = system: OVCAR-4 ovarian
[9] = system: 786-0 renal
[10] = system: OVCAR-5 ovarian

Row | Structure (SMILES) | TGI [1] [µM] | TGI [2] [µM] | TGI [3] [µM] | TGI [4] [µM] | TGI [5] [µM] | TGI [6] | TGI [7] [µM] | TGI [8] [µM] | TGI [9] | TGI [10] [µM] | GI50 [1] [µM] | GI50 [3] [µM] | GI50 [4] [µM] | GI50 [5] [µM] | GI50 [6] [µM] | GI50 [7] [µM] | GI50 [8] [µM] | GI50 [10] [µM] | GI50 [9] [µM] | GI50 [2] [µM]
1 | CCN(CC)c1ccc(N=Nc2ccc([N+](=O)[O-])cc2OC(=O)/C=C/c2ccccc2)c(OC(=O)/C=C/c2ccccc2)c1 | > 100 | > 100 | > 100 | > 100 | > 100 | > 100 µM | > 100 | > 100 | > 100 µM | – | – | – | – | – | – | – | – | – | – | –
2 | C[N+](C)(C)CC1CCC/C1=N/O (stereo not given) | > 100 | > 100 | > 100 | 54.2 | – | 39.1 µM | > 100 | > 100 | 44.5 µM | > 100 | – | – | – | – | – | – | – | – | – | –
3 | Nc1nc(N)c(C=Nc2ccc(Br)cc2)c(Nc2ccc(Br)cc2)n1 | 38.5 | – | 24.7 | 10.2 | 18.7 | 26.2 µM | 27.1 | 25 | 23 µM | 21.5 | 11.3 | 12.3 | 2.61 | 3.45 | 9.3 | 8.16 | 10.6 | 9.98 | 11.1 | –
4 | CC(=O)OC1=CC2=CC[C@H]3[C@@H]4CCC(=O)[C@@]4(C)CC(=O)[C@]3(S)[C@@]2(C)CC1 | > 100 | – | > 100 | 74.1 | > 100 | > 100 µM | 89.6 | > 100 | 87 µM | > 100 | – | – | – | – | – | – | – | – | – | –
5 | COC(=O)C(=CNC(N)=O)C(=O)OC | > 100 | – | > 100 | > 100 | > 100 | > 100 µM | > 100 | – | > 100 µM | > 100 | – | – | – | – | – | – | – | – | – | –
6 | ON(Cc1ccccc1)C(=S)c1ccccc1 | > 45.3 | 93 | > 100 | – | – | > 27 µM | > 100 | > 100 | > 100 µM | > 100 | – | – | – | – | – | – | – | – | – | –
7 | NC(=O)c1c([N+](=O)[O-])cc(C(F)(F)F)cc1[N+](=O)[O-] | > 100 | > 100 | > 100 | > 100 | > 100 | – | > 100 | > 100 | > 100 µM | > 100 | – | – | – | – | – | – | – | – | – | –
8 | COc1cccc(CSCC(=O)O)c1 | > 100 | > 100 | > 100 | – | > 100 | – | > 100 | > 100 | > 100 µM | > 100 | – | – | – | – | – | – | – | – | – | –
9 | O=C(O)C1CC2(C1)CC(C(=O)O)C2 (stereo not given) | > 100 | – | > 100 | > 100 | > 100 | – | – | > 100 | > 100 µM | > 100 | – | – | – | – | – | – | – | – | – | –
10 | CN(C)c1ccc(/C=C/c2ccc(/C=C/c3ccc(N(C)C)cc3)cc2)cc1 | > 100 | > 100 | > 100 | – | > 100 | > 100 µM | > 100 | > 100 | > 100 µM | > 100 | – | – | – | – | – | – | – | – | – | –
11 | S=C(Nc1ccc(N=Nc2ccccc2)cc1)SCc1ccccc1 | 34.4 | 39 | 38 | – | 32.9 | 36.1 µM | 36.6 | 33.2 | 38 µM | – | – | – | – | – | – | – | – | – | – | –
12 | O=C(CC1(O)C(=O)Nc2ccc(Br)cc21)c1ccc(Cl)cc1Cl (stereo not given) | > 100 | > 100 | > 100 | 50.7 | – | 57.1 µM | > 100 | > 100 | > 100 µM | > 100 | – | – | – | – | – | – | – | – | – | –
13 | CS(=O)(=O)NNS(=O)(=O)c1ccccc1 | > 100 | > 100 | – | > 100 | > 100 | > 100 µM | > 100 | > 100 | > 100 µM | – | – | – | – | – | – | – | – | – | – | –
14 | CC(=O)NC1C(OCc2ccccc2)OC(CO)C(O)C1OC(C)C(=O)N[C@@H](C)C(=O)N[C@H](CCC(=O)OCCNc1c2ccccc2nc2cccc([N+](=O)[O-])c12)C(N)=O (stereo not given in full) | 0.0339 | 0.0217 | 0.0118 | > 0.1 | – | > 0.1 µM and 0.0189 µM | 0.0343 | 0.0116 | 0.00335 µM and 0.00671 µM | 0.0061 | – | – | – | – | – | – | – | – | – | –
15 | COC(=O)/C(=N/Nc1cccc(Cl)c1)C(C(=O)C(=O)Nc1cccc(Cl)c1C)c1nc2ccccc2nc1C (stereo not given) | > 100 | – | > 100 | > 100 | > 100 | > 100 µM | > 100 | > 100 | > 100 µM | 59.8 | – | – | – | – | – | – | – | – | – | –
16 | Cc1cn(C2C=CC(CO)O2)c(=O)[nH]c1=O (stereo not given) | > 1000 | > 1000 | – | > 1000 | > 1000 | > 1000 µM | > 1000 | > 1000 | > 1000 µM | > 1000 | – | – | – | – | – | – | – | – | – | –
17 | Nc1cc(O)ccc1N=Nc1ccc(-c2nc3ccccc3[nH]2)cc1 | > 100 | > 100 | > 100 | > 100 | 82.3 | – | 22.8 | > 100 | > 100 µM | > 100 | 16.8 | 34.8 | 68.5 | 3.51 | – | 3.07 | > 100 | > 100 | 77.2 | > 100
18 | Cn1nc(-c2ccc(Cl)cc2)nc2c(=O)n(C)c(=O)nc1-2 | 1.81 | 5.83 | 3.13 | – | 6.61 | 50 µM | 6.58 | 3.3 | 9.65 µM | 1.77 | 0.777 | 1.24 | – | 1.87 | 1.49 | 1.8 | 1.2 | 0.949 | 1.43 | 2.38
19 | CN(C)C(=Nc1nc(=[N+](C)C)ss1)N(C)C | > 100 | > 100 | > 100 | – | > 100 | > 100 µM | > 100 | > 100 | > 100 µM | > 100 | – | – | – | – | – | – | – | – | – | –
20 | COC(=O)CCC1CCc2c(OC)ccc(OC)c2C1=O (stereo not given) | > 100 | – | > 100 | > 100 | – | > 100 µM | > 100 | > 100 | > 100 µM | > 100 | – | – | – | – | – | – | – | – | – | –
21 | O=C(NCCO)c1ccc([N+](=O)[O-])cc1 | > 100 | > 100 | > 100 | – | > 100 | > 100 µM | > 100 | – | > 100 µM | – | – | – | – | – | – | – | – | – | – | –
22 | CN(C)c1nnnn1-c1c(N)n(C)c(=O)n(C)c1=O | > 100 | > 100 | > 100 | – | > 100 | > 100 µM | > 100 | > 100 | > 100 µM | > 100 | – | – | – | – | – | – | – | – | – | –
